Experimental data as given in the NIST ThermoML archive (doi:10.1021/acs.jced.6b00121).

Experiment: xn = mol fraction of the nth substance listed
Conditions: 100 kPa, Liquid; for mass density: Vibrating tube method; for viscosity: Falling or rolling sphere viscometry

CCCCCCCCCCC [undecane] + CCCO
Conditions | mass density [kg/m3] | viscosity [mPa·s]
323.15 K, x1 = 0.1003 | 762.28 | –
323.15 K, x1 = 0.2009 | 750.73 | –
323.15 K, x1 = 0.3004 | 742.26 | –
323.15 K, x1 = 0.3997 | 735.82 | –
323.15 K, x1 = 0.4998 | 730.81 | –
323.15 K, x1 = 0.6005 | 726.72 | –
323.15 K, x1 = 0.6974 | 723.59 | –
323.15 K, x1 = 0.8 | 721.01 | –
323.15 K, x1 = 0.8963 | 719.09 | –
323.15 K, x1 = 1 | 718.11 | –
328.15 K, x1 = 0.1003 | 758.02 | 0.885
328.15 K, x1 = 0.2009 | 746.49 | 0.811
328.15 K, x1 = 0.3004 | 738.04 | 0.76
328.15 K, x1 = 0.3997 | 731.64 | 0.723
328.15 K, x1 = 0.4998 | 726.68 | 0.698
328.15 K, x1 = 0.6005 | 722.64 | 0.681
328.15 K, x1 = 0.6974 | 719.57 | 0.669
328.15 K, x1 = 0.8 | 717.05 | 0.665
328.15 K, x1 = 0.8963 | 715.21 | 0.669
328.15 K, x1 = 1 | 714.39 | 0.692
333.15 K, x1 = 0.1003 | 753.7 | 0.805
333.15 K, x1 = 0.2009 | 742.18 | 0.741
333.15 K, x1 = 0.3004 | 733.76 | 0.698
333.15 K, x1 = 0.3997 | 727.41 | 0.668
333.15 K, x1 = 0.4998 | 722.5 | 0.648
333.15 K, x1 = 0.6005 | 718.52 | 0.634
333.15 K, x1 = 0.6974 | 715.51 | 0.625
333.15 K, x1 = 0.8 | 713.06 | 0.623
333.15 K, x1 = 0.8963 | 711.3 | 0.628
333.15 K, x1 = 1 | 710.68 | 0.651
338.15 K, x1 = 0.1003 | 749.3 | 0.734
338.15 K, x1 = 0.2009 | 737.8 | 0.68
338.15 K, x1 = 0.3004 | 729.43 | 0.645
338.15 K, x1 = 0.3997 | 723.12 | 0.619
338.15 K, x1 = 0.4998 | 718.27 | 0.604
338.15 K, x1 = 0.6005 | 714.36 | 0.593
338.15 K, x1 = 0.6974 | 711.41 | 0.586
338.15 K, x1 = 0.8 | 709.04 | 0.586
338.15 K, x1 = 0.8963 | 707.37 | 0.592
338.15 K, x1 = 1 | 706.95 | 0.615
343.15 K, x1 = 0.1003 | 744.8 | 0.672
343.15 K, x1 = 0.2009 | 733.33 | 0.626
343.15 K, x1 = 0.3004 | 725.01 | 0.596
343.15 K, x1 = 0.3997 | 718.77 | 0.576
343.15 K, x1 = 0.4998 | 713.98 | 0.563
343.15 K, x1 = 0.6005 | 710.14 | 0.555
343.15 K, x1 = 0.6974 | 707.27 | 0.551
343.15 K, x1 = 0.8 | 704.99 | 0.552
343.15 K, x1 = 0.8963 | 703.43 | 0.558
343.15 K, x1 = 1 | 703.22 | 0.58
348.15 K, x1 = 0.1003 | 740.24 | 0.617
348.15 K, x1 = 0.2009 | 728.8 | 0.578
348.15 K, x1 = 0.3004 | 720.53 | 0.553
348.15 K, x1 = 0.3997 | 714.34 | 0.537
348.15 K, x1 = 0.4998 | 709.64 | 0.527
348.15 K, x1 = 0.6005 | 705.88 | 0.522
348.15 K, x1 = 0.6974 | 703.09 | 0.519
348.15 K, x1 = 0.8 | 700.9 | 0.521
348.15 K, x1 = 0.8963 | 699.45 | 0.528
348.15 K, x1 = 1 | 699.47 | 0.549
353.15 K, x1 = 0.1003 | 735.57 | 0.568
353.15 K, x1 = 0.2009 | 724.18 | 0.535
353.15 K, x1 = 0.3004 | 715.97 | 0.515
353.15 K, x1 = 0.3997 | 709.86 | 0.502
353.15 K, x1 = 0.4998 | 705.23 | 0.495
353.15 K, x1 = 0.6005 | 701.57 | 0.492
353.15 K, x1 = 0.6974 | 698.86 | 0.49
353.15 K, x1 = 0.8 | 696.77 | 0.492
353.15 K, x1 = 0.8963 | 695.46 | 0.501
353.15 K, x1 = 1 | 695.72 | 0.522
358.15 K, x1 = 0.1003 | 730.81 | 0.525
358.15 K, x1 = 0.2009 | 719.45 | 0.497
358.15 K, x1 = 0.3004 | 711.32 | 0.481
358.15 K, x1 = 0.3997 | 705.29 | 0.471
358.15 K, x1 = 0.4998 | 700.75 | 0.466
358.15 K, x1 = 0.6005 | 697.19 | 0.465
358.15 K, x1 = 0.6974 | 694.58 | 0.463
358.15 K, x1 = 0.8 | 692.62 | 0.467
358.15 K, x1 = 0.8963 | 691.44 | 0.476
358.15 K, x1 = 1 | 691.96 | 0.497
363.15 K, x1 = 0.1003 | 725.93 | 0.4864
363.15 K, x1 = 0.2009 | 714.64 | 0.4635
363.15 K, x1 = 0.3004 | 706.59 | 0.4506
363.15 K, x1 = 0.3997 | 700.67 | 0.443
363.15 K, x1 = 0.4998 | 696.22 | 0.4401
363.15 K, x1 = 0.6005 | 692.77 | 0.4396
363.15 K, x1 = 0.6974 | 690.27 | 0.4398
363.15 K, x1 = 0.8 | 688.42 | 0.4438
363.15 K, x1 = 0.8963 | 687.41 | 0.4531
363.15 K, x1 = 1 | 688.18 | 0.475
